Test results reported in US20170056423A1 (Gilead Sciences, Inc., priority 2012, published 2017).
Where two headings read alike, the source gives them in different places.

Assays:
[1] = for thermodynamic stability in solvents: toluene, MTBE, acetone, THF, 2-methyl THF
[2] = Source text: Chemical stability of the hemifumarate form of tenofovir alafenamide was compared with the monofumarate form. […] Conditions evaluated include temperature, relative humidity (RH), and the open or closed state of the container cap.
[3] = 25° C., relative humidity of 90%
Method: DVS analysis was conducted using 4.951 mg of tenofovir alafenamide hemifumarate. The material was kept at 25° C. in nitrogen at humidities ranging from 10% to 90% relative humidity: each step was equilibrated for 120 minutes.

[4] = 40° C./75% RH Cap Closed, 0 weeks
[5] = 40° C./75% RH Cap Closed, 1 week
[6] = 40° C./75% RH Cap Closed, 2 weeks
[7] = 40° C./75% RH Cap Closed, 4 weeks
[8] = 40° C./75% RH Cap Closed, 8 weeks
[9] = 40° C./75% RH Cap Open, 0 weeks
[10] = 40° C./75% RH Cap Open, 2 weeks
[11] = 40° C./75% RH Cap Open, 4 weeks
[12] = 40° C./75% RH Cap Open, 8 weeks

Substance | thermodynamic stability in solvents ([1]; ACN, ethyl acetate) | % TA Area Normalized [2, 4] | % Total Deg. Products [2, 4] | % TA Area Normalized [2, 5] | % Total Deg. Products [2, 5] | % TA Area Normalized [2, 6] | % Total Deg. Products [2, 6] | % TA Area Normalized [2, 7] | % Total Deg. Products [2, 7] | % TA Area Normalized [2, 8] | % Total Deg. Products [2, 8] | % TA Area Normalized [2, 9] | % Total Deg. Products [2, 9] | % TA Area Normalized ([2]; 40° C./75% RH Cap Open, 1 week) | % Total Deg. Products ([2]; 40° C./75% RH Cap Open, 1 week) | % TA Area Normalized [2, 10] | % Total Deg. Products [2, 10] | % TA Area Normalized [2, 11] | % Total Deg. Products [2, 11] | % TA Area Normalized [2, 12] | other results
tenofovir alafenamide monofumarate [Monofumarate form] | not thermodynamically stable | 97.1% | 0.69% | 97.0% | 0.87% | 96.6% | 1.18% | 96.4% | 1.49% | 95.4% | 2.36% | 97.1% | 0.69% | 96.9% | 0.90% | 96.6% | 1.10% | 96.2% | 1.67% | 95.0% | form conversion when suspended in solvent ([1]; ACN, ethyl acetate, MTBE, and acetone): partially converts to the hemifumarate form; form conversion when suspended in solvent ([1]; THF and 2-methyl THF): fully converts to the hemifumarate form; % Total Deg. Products [2, 12]: 2.74%; % TA Area Normalized ([2]; 70° C. Cap Closed, 0 weeks): 97.1%; % Total Deg. Products ([2]; 70° C. Cap Closed, 0 weeks): 0.69%; % TA Area Normalized ([2]; 70° C. Cap Closed, 2 weeks): 96.2%; % Total Deg. Products ([2]; 70° C. Cap Closed, 2 weeks): 1.83%; % TA Area Normalized ([2]; 70° C. Cap Closed, 4 weeks): 93.3%; % Total Deg. Products ([2]; 70° C. Cap Closed, 4 weeks): 4.78%
tenofovir alafenamide hemifumarate | thermodynamically stable in most solvents | 98.4% | 0.05% | 98.4% | 0.14% | 98.5% | 0.14% | 98.4% | 0.25% | 98.0% | 0.49% | 98.4% | 0.05% | 98.5% | 0.15% | 98.5% | 0.14% | 98.4% | 0.26% | 98.1% | water absorbed [3]: 0.65%; % Total Deg. Products [2, 12]: 0.50%; % TA Area Normalized ([2]; 70° C. Cap Closed, 0 weeks): 98.4%; % Total Deg. Products ([2]; 70° C. Cap Closed, 0 weeks): 0.05%; % TA Area Normalized ([2]; 70° C. Cap Closed, 2 weeks): 98.5%; % Total Deg. Products ([2]; 70° C. Cap Closed, 2 weeks): 0.22%; % TA Area Normalized ([2]; 70° C. Cap Closed, 4 weeks): 98.4%; % Total Deg. Products ([2]; 70° C. Cap Closed, 4 weeks): 0.33%
